Data: US7713953B2, “2-methylene-(22E)-25-(1-methylene-hexyl)-26,27-cyclo-22-dehydro-19-nor-vitamin D analogs” (Wisconsin Alumni Research Foundation, priority 2008, dated 2010)
Each block holds one molecule with its values, some of them ahead of it.

Assays:
[1] = molecular target: T1, full-length recombinant rat vitamin D receptor (Rattus norvegicus, UniProt P13053); experiment: Vitamin D receptor competitive binding with [3H]-1,25(OH)2D3; details: full-length recombinant rat VDR; FIG. 1; read-out: Ki, competition with [3H]-1,25(OH)2D3 for binding to vitamin D receptor
T1 construct: Full-length recombinant rat receptor was expressed in E. coli BL21 (DE3) Codon Plus RIL cells; histidine tag (C); made in house; host or cells: E. coli BL21 (DE3) Codon Plus RIL
T1 sequence (P13053 1-423): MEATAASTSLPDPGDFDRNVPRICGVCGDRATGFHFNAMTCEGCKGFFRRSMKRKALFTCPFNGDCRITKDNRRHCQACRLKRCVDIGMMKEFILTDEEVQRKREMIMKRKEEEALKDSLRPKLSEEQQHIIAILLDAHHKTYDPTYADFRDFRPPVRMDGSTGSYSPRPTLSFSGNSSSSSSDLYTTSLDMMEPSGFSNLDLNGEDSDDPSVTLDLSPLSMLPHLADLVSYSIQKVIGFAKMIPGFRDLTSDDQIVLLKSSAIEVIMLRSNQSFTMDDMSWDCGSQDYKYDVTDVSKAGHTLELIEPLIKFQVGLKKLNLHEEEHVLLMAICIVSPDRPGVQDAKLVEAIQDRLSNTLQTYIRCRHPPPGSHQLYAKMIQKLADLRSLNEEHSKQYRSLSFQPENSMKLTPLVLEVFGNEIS
Procedure: Full-length recombinant rat receptor was expressed in E. coli BL21 (DE3) Codon Plus RIL cells and purified to homogeneity using two different column chromatography systems. The first system was a nickel affinity resin that utilizes the C-terminal histidine tag on this protein. The protein that was eluted from this resin was further purified using ion exchange chromatography (S-Sepharose Fast Flow). Aliquots of the purified protein were quick frozen in liquid nitrogen and stored at −80° C. until use. For use in binding assays, the protein was diluted in TEDK50 (50 mM Tris, 1.5 mM EDTA, pH7.4, 5 mM DTT, 150 mM KCl) with 0.1% Chaps detergent. The receptor protein and ligand concentration were optimized such that no more than 20% of the added radiolabeled ligand was bound to the receptor.
Radiolabeled and unlabeled ligands were added to 100 mcl of the diluted protein at a final ethanol concentration of ≦10%, mixed and incubated overnight on ice to reach binding equilibrium. The following day, 100 mcl of hydroxylapatite slurry (50%) was added to each tube and mixed at 10-minute intervals for 30 minutes. The hydroxylapaptite was collected by centrifugation and then washed three times with Tris-EDTA buffer (50 mM Tris, 1.5 mM EDTA, pH 7.4) containing 0.5% Titron X-100. […] Total binding was determined from the tubes containing only radiolabeled ligand.

[2] = system: vitamin D-deficient rats; experiment: Bone calcium mobilization (serum calcium); assay type: in vivo, rat; details: for bone calcium mobilization activity (serum calcium): rats on low calcium diet (0.02%), 4 consecutive daily ip doses
Procedure: (§1) Male, weanling Sprague-Dawley rats were placed on Diet 11 (0.47% Ca) diet+AEK oil for one week followed by Diet 11 (0.02% Ca)+AEK oil for 3 weeks. The rats were then switched to a diet containing 0.47% Ca for one week followed by two weeks on a diet containing 0.02% Ca. Dose administration began during the last week on 0.02% calcium diet. Four consecutive ip doses were given approximately 24 hours apart. Twenty-four hours after the last dose, blood was collected from the severed neck and the concentration of serum calcium determined as a measure of bone calcium mobilization. The first 10 cm of the intestine was also collected for intestinal calcium transport analysis using the everted gut sac method.

[3] = system: HL-60 cells; experiment: HL-60 cell differentiation (nitro blue tetrazolium reduction); assay type: cell-based, human; details: for EC50: FIG. 2
Procedure: The study drugs were dissolved in ethanol and the concentrations determined using UV spectrophotometry. Serial dilutions were prepared so that a range of drug concentrations could be tested without changing the final concentration of ethanol (≦0.2%) present in the cell cultures.
Human promyelocytic leukemia (HL60) cells were grown in RPMI-1640 medium containing 10% fetal bovine serum. The cells were incubated at 37° C. in the presence of 5% CO2.
HL60 cells were plated at 1.2×10^5 cells/ml. Eighteen hours after plating, cells in duplicate were treated with drug. Four days later, the cells were harvested and a nitro blue tetrazolium reduction assay was performed (Collins et al., 1979; J. Exp. Med. 149:969-974). The percentage of differentiated cells was determined by counting a total of 200 cells and recording the number that contained intracellular black-blue formazan deposits. Verification of differentiation to monocytic cells was determined by measuring phagocytic activity (data not shown).

[4] = system: vitamin D-deficient rats; experiment: Intestinal calcium transport (everted gut sac method); assay type: in vivo, rat
Procedure: as §1

[5] = system: 24-hydroxylase (24 Ohase) gene promoter in ROS 17/2.8 (bone) cells; experiment: In vitro transcription assay (24-hydroxylase promoter luciferase reporter); assay type: cell-based
Procedure: Transcription activity was measured in ROS 17/2.8 (bone) cells that were stably transfected with a 24-hydroxylase (24 Ohase) gene promoter upstream of a luciferase reporter gene (Arbour et al., 1998). Cells were given a range of doses. Sixteen hours after dosing the cells were harvested and luciferase activities were measured using a luminometer.
RLU=relative luciferase units.

[6] = times greater than the native hormone

- Ki [1]: 0.3 nM
- EC50 ([3]; Homo sapiens, HL-60): 0.8 nM
- EC50 ([5]; 24-hydroxylase gene, FIG. 3, read-out: EC50, transcriptional activity in bone cells): 0.08 nM
Compound: C=C1[C@H](O)CC(=C/C=C2\CCC[C@]3(C)[C@@H]([C@H](C)/C=C/[C@@H](O)C4(C(=C)CCCCC)CC4)CC[C@@H]23)C[C@H]1O [MM-49, 2-methylene-(22E)-25-(1-methylene-hexyl)-26,27-cyclo-22-dehydro-19-nor-1α,24(R)-dihydroxyvitamin D3]
- bone calcium mobilization at 7020 pmol/day compared with native hormone at 780 pmol/day ([2]; 7020 pmol/day for 4 consecutive days, FIG. 4B): did not result in the same mobilization of bone calcium
- dose giving the same mobilization of bone calcium as 1,25(OH)2D3 at 32 pmol/day ([2]; 4 consecutive days, FIG. 4A): 260 pmol/day
- dose at which any substantial effect on bone calcium mobilization was seen ([2]; FIG. 4A, first group of animals): 780 pmol/day
- dose at which any substantial effect on bone calcium mobilization was seen ([2]; FIG. 4B, second group of animals): 35,100 pmol/day
- bone calcium mobilization activity (serum calcium) ([2]; FIG. 4A): relatively low, or little, activity in mobilizing calcium from bone
- HL-60 cell differentiation activity relative to 1α,25-dihydroxyvitamin D3 [3, 6]: ~5 times
- intestinal calcium transport activity at 260 pmol/day ([4]; 260 pmol/day for 4 consecutive days, FIG. 5A): did not result in any activity
- intestinal calcium transport at 780 pmol/day [4]: promotes intestinal calcium transport
- dose at which any significant effect on intestinal calcium transport was seen ([4]; FIG. 5A): 780 pmol/day
- intestinal calcium transport activity ([4]; FIG. 5A, overall): relatively low, or little, intestinal calcium transport activity
- intestinal calcium transport activity compared with native hormone ([4]; FIG. 5B, second group of animals): significantly less than 1,25(OH)3D3
- transcriptional activity in bone cells relative to 1α,25-dihydroxyvitamin D3 [5, 6]: 5 times

Compound: C=C1/C(=C\C=C2/CCC[C@]3(C)[C@@H]([C@H](C)CCCC(C)(C)O)CC[C@@H]23)C[C@@H](O)C[C@@H]1O [1,25(OH)2D3, 1α,25-dihydroxyvitamin D3, reference compound]
- bone calcium mobilization activity (serum calcium) ([2]; FIG. 4A): increased serum calcium levels at all dosages
- EC50 [3]: 3 nM
- intestinal calcium transport at 780 pmol/day [4]: significant increase
